Here are results for 41 compounds from patent publication US10919852B2, “Immunomodulator compounds” (CHEMOCENTRYX, INC., priority 2017, dated 2021).

The target in this assay is human PD-L1 / Human PD-1 (Homo sapiens (Human), UniProt Q9NZQ7). The experiment in a line: Enzyme-Linked Immunosorbent Assay (ELISA), PD-1/PD-L1 binding. The note with it: plate-coated human PD-L1, biotinylated human PD-1. The method, then:
Biological Example: Enzyme-Linked Immunosorbent Assay—ELISA
96 Well plates were coated with […] of human PD-L1 (obtained from R&D) in PBS overnight at 4° C. The wells were then blocked with 2% BSA in PBS (W/V) with 0.05% TWEEN-20 for 1 hour at 37° C. The plates were washed 3 times with PBS/0.05% TWEEN-20 and the compounds were serial diluted (1:5) in dilution medium and added to the ELISA plates. Human PD-1 and biotin 0.3 μg/mL (ACRO Biosystems) were added and incubated for 1 hour at 37° C. then washed 3 times with PBS/0.05% TWEEN-20. A second block was performed with 2% BSA in PBS (W/V)/0.05% TWEEN-20 for 10 min at 37° C. and was washed 3 times with PBS/0.05% TWEEN-20. Streptavidin-HRP was added for 1 hour at 37° C. then washed 3 times with PBS/0.05% TWEEN-20. TMB substrate was added and reacted for 20 min at 37° C. A stop solution (2 N aqueous H2SO4) was added. The absorbance was read at 450 nm using a micro-plate spectrophotometer.
In general terms: In an ELISA, binding on a coated surface is turned into a signal by an enzyme label.

human PD-L1 / Human PD-1, sequence (Q9NZQ7 19-239): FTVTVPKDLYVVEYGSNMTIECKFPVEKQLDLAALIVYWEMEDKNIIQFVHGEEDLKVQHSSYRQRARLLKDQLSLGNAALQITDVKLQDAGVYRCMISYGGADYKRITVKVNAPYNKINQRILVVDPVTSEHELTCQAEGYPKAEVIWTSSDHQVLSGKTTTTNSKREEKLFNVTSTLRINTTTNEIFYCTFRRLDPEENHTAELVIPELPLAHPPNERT

By IC50 is commonly meant the concentration needed to halve the response being measured. On to `Cc1c(OCCCN2CCC(F)CC2)cccc1-c1cccc2c1CC[C@@H]2Oc1cc(OCc2cncc(C#N)c2)c(CN[C@H](C(=O)O)[C@@H](C)O)cc1Cl`, for which the IC50 is less than 5 nM.
In turn, `CCOc1cc(O[C@H]2CCc3c(-c4cccc(OCCCN5CC[C@@H](O)C5)c4C)cccc32)c(Cl)cc1CN[C@H](C(=O)O)[C@@H](C)O` yielded an IC50 of less than 5 nM.
As to `Cc1c(OCCCN2CCC(O)CC2)cccc1-c1cccc2c1CC[C@@H]2Oc1cc(OCc2cncc(C#N)c2)c(CN2CC[C@@H](O)C2)cc1Cl`, the concentration for half-maximal inhibition (IC50) was less than 5 nM.
Then `CCOc1cc(O[C@H]2CCc3c(-c4cccc(OCCCN5C(C)CC5C)c4C)cccc32)c(Cl)cc1CNC[C@@H]1CCC(=O)N1` (some centres unmarked), with less than 5 nM; and `Cc1c(OCCCN2CC[C@H](F)C2)cccc1-c1cccc2c1CC[C@@H]2Oc1cc(OCc2cncc(C#N)c2)c(CN[C@@H]2CCCC[C@@H]2O)cc1Cl`, with less than 5 nM.
`CC1(F)CCN(CCCOc2cccc(-c3cccc4c3CC[C@@H]4Oc3cc(OCc4cncc(C#N)c4)c(CN[C@@H]4CCC(=O)NC4)cc3Cl)c2Cl)CC1` displayed an IC50 of 5 to 500 nM.
For the compound `N#Cc1cncc(COc2cc(O[C@H]3CCc4c(-c5cccc(OCCCN6CCC(F)CC6)c5Cl)cccc43)c(Cl)cc2CN2CC[C@@H](O)C2)c1`, the IC50 is less than 5 nM.
Then `N#Cc1cncc(COc2cc(O[C@H]3CCc4c(-c5cccc(OCCCN6CC7(CC(F)C7)C6)c5Cl)cccc43)c(Cl)cc2CNC[C@H]2CCC(=O)N2)c1`, with less than 5 nM; and `N#Cc1cncc(COc2cc(O[C@H]3CCc4c(-c5cccc(OCCCN6CC[C@@H](F)C6)c5Cl)cccc43)c(Cl)cc2CN[C@@H]2CCCC[C@@H]2O)c1`, with less than 5 nM.
As to `CCOc1cc(O[C@H]2CCc3c(-c4cccc(OCCCN5[C@H](C)CC[C@H]5C)c4C)cccc32)c(Cl)cc1CNC[C@@H]1CCC(=O)N1`, the IC50 was less than 5 nM.
Then `CC(CO)(NCc1cc(Cl)c(O[C@H]2CCc3c(-c4cccc(OCCCN5CC6(CC(F)C6)C5)c4Cl)cccc32)cc1OCc1cncc(C#N)c1)C(=O)O` (some centres unmarked), with less than 5 nM; and `Cc1c(OCCCN2CCC(O)CC2)cccc1-c1cccc2c1C[C@H](F)[C@@H]2Oc1cc(OCc2cncc(C#N)c2)c(CN[C@H](C(=O)O)[C@@H](C)O)cc1Cl`, with less than 5 nM; and `N#Cc1cncc(COc2cc(O[C@H]3CCc4c(-c5cccc(OCCCN6CC7(CC(F)C7)C6)c5Cl)cccc43)c(Cl)cc2CN[C@@H]2CC[C@H]2O)c1`, with less than 5 nM.
Compound `CCOc1cc(O[C@H]2CCc3c(-c4cccc(OCCC(C)(C)N)c4C)cccc32)c(Cl)cc1CN[C@H]1CCC(=O)NC1` displayed a 50% inhibitory concentration (IC50) of 5 to 500 nM.
For the compound `CCOc1cc(O[C@H]2CCc3c(-c4cccc(OCCCN5CCC(F)CC5)c4Cl)cccc32)c(Cl)cc1CNC(C)(CO)CO`, the IC50 was in the range of 5 to 500 nM.
Then `CCOc1cc(O[C@H]2CCc3c(-c4cccc(OCCCN5CCC5C(C)(C)C)c4C)cccc32)c(Cl)cc1CNC[C@@H]1CCC(=O)N1` (some centres unmarked), with 5 to 500 nM.
The compound `Cc1c(OCCCN2CCC(O)CC2)cccc1-c1cccc2c1CC[C@@H]2Oc1cc(OCc2cncc(C#N)c2)c(CN2CCC(O)CC2)cc1Cl` registered a 50% inhibitory concentration (IC50) of less than 5 nM.
Then `CCOc1cc(O[C@H]2CCc3c(-c4cccc(OCCCN5CCC(O)CC5)c4C)cccc32)c(Cl)cc1CN[C@@H](CO)C(=O)O`, with less than 5 nM; and `CN1CCC(COc2cccc(-c3cccc4c3CC[C@@H]4Oc3cc(OCc4cncc(C#N)c4)c(CNC[C@@H]4CCC(=O)N4)cc3Cl)c2Cl)C1` (some centres unmarked), with less than 5 nM.
Then `Cc1c(OCCCN2CC(C)(C)C2)cccc1-c1cccc2c1CC[C@@H]2Oc1cc(OCc2cc(C#N)cc(C#N)c2)c(CN[C@H]2CCC(=O)NC2)cc1Cl`, with less than 5 nM; and `Cc1c(OCCCN2CCC(F)(C#N)CC2)cccc1-c1cccc2c1CC[C@@H]2Oc1cc(OCc2cc(C#N)cc(C#N)c2)c(CN[C@H]2CCC(=O)NC2)cc1Cl`, with 5 to 500 nM; and `Cc1c(OCCCNCC(C)(C)O)cccc1-c1cccc2c1CC[C@@H]2Oc1cc(OCc2cncc(C#N)c2)c(CNCC2CCC(=O)N2)cc1Cl` (some centres unmarked), with less than 5 nM.
Next, `Cc1c(OCCCN2CCC(C)(F)CC2)cccc1-c1cccc2c1CC[C@@H]2Oc1cc(OCc2cc(C#N)cc(C#N)c2)c(CNC[C@H]2CCC(=O)N2)cc1Cl`: 5 to 500 nM; `CCOc1cc(O[C@H]2CCc3c(-c4cccc(OCCCN5CCC(F)CC5)c4Cl)cccc32)c(Cl)cc1CN[C@@H]1CCCC[C@@H]1O`: 5 to 500 nM.
`Cc1c(OCCCN2CCC(F)CC2)cccc1-c1cccc2c1CC[C@@H]2Oc1cc(OCc2cncc(C#N)c2)c(CN[C@H](C(N)=O)[C@@H](C)O)cc1Cl` displayed an IC50 of 5 to 500 nM.
Then `CCOc1cc(O[C@H]2CCc3c(-c4cccc(OCCCN5CCC5(C)C)c4C)cccc32)c(Cl)cc1CNCCS(=O)(=O)O`, with 5 to 500 nM; and `CCOc1cc(O[C@H]2CCc3c(-c4cccc(OCCCN5CCC(O)CC5)c4C)cccc32)c(Cl)cc1CN[C@H](C(=O)O)[C@@H](C)O`, with less than 5 nM.
Then `CCOc1cc(O[C@H]2CCc3c(-c4cccc(OCCCN5CCC5(C)C)c4C)cccc32)c(Cl)cc1CN(C)CCC(=O)O`, with 5 to 500 nM; and `CCOc1cc(O[C@H]2CCc3c(-c4cccc(OCCCN5CC(O)C5)c4C)cccc32)c(Cl)cc1CN[C@@H](CO)C(=O)O`, with less than 5 nM.
`Cc1c(OCCCN2CC3(CCC3)C2)cccc1-c1cccc2c1CC[C@@H]2Oc1cc(OCc2cc(C#N)cc(C#N)c2)c(CNC[C@@H]2CCC(=O)N2)cc1Cl` showed a half-maximal inhibitory concentration (IC50) of less than 5 nM.
Compound `CCOc1cc(O[C@H]2CCc3c(-c4cccc(OCCCN5CCC5(C)C)c4C)cccc32)c(Cl)cc1CN(C)CCc1nnn[nH]1` registered a concentration for half-maximal inhibition (IC50) of 5 to 500 nM.
`CCOc1cc(O[C@H]2CCc3c(-c4cccc(OCCCN5CC(O)C5)c4Cl)cccc32)c(Cl)cc1CNCC1CCC(=O)N1` (some centres unmarked) registered an IC50 of 5 to 500 nM.
Next, `Cc1c(OCCCN2CCC(O)CC2)cccc1-c1cccc2c1CC[C@H]2Oc1cc(OCc2cncc(C#N)c2)c(CN[C@H](C(=O)O)[C@@H](C)O)cc1Cl`: less than 5 nM.
Then `N#Cc1cc(C#N)cc(COc2cc(O[C@H]3CCc4c(-c5cccc(OCCCN6CCC(F)CC6)c5Cl)cccc43)c(Cl)cc2CNC[C@H]2CCC(=O)N2)c1`, with less than 5 nM; and `Cc1c(OCCCN2CCC(F)CC2)cccc1-c1cccc2c1C[C@H](F)[C@@H]2Oc1cc(OCc2cc(C#N)cc(C#N)c2)c(CN[C@H]2CCC(=O)NC2)cc1Cl`, with 5 to 500 nM; and `N#Cc1cncc(COc2cc(O[C@H]3CCc4c(-c5cccc(OCCCN6CC7(CC(O)C7)C6)c5Cl)cccc43)c(Cl)cc2CN[C@H]2CCC[C@@H]2O)c1`, with less than 5 nM.
Next, `CC1(F)CCN(CCCOc2cccc(-c3cccc4c3CC[C@@H]4Oc3cc(OCc4cncc(C#N)c4)c(CN[C@@H]4CCCC[C@@H]4O)cc3Cl)c2Cl)CC1`: less than 5 nM; `C[C@@](CO)(NCc1cc(Cl)c(O[C@H]2CCc3c(-c4cccc(OCCCN5CC(O)C5)c4Cl)cccc32)cc1OCc1cncc(C#N)c1)C(=O)O`: less than 5 nM.
As to `Cc1c(OCCCN2CCC(F)CC2)cccc1-c1cccc2c1CC[C@@H]2Oc1cc(OCc2cc(C#N)cc(C#N)c2)c(CN[C@@H]2CCOC[C@H]2O)cc1Cl`, the half-maximal inhibitory concentration (IC50) is less than 5 nM.
With `N#Cc1cncc(COc2cc(O[C@H]3CCc4c(-c5cccc(OCCCN6CCC(F)CC6)c5Cl)cccc43)c(Cl)cc2CN[C@@H]2CCC(=O)NC2)c1`, the IC50 was less than 5 nM.
Next, `N#Cc1cncc(COc2cc(O[C@H]3CCc4c(-c5cccc(OCCCN6CCC(F)CC6)c5Cl)cccc43)c(Cl)cc2CNCC2CNC(=O)C2)c1` (some centres unmarked): less than 5 nM.
